Data set [1] is described as follows: Stability of PTH or TGPTH in buffer (spiked samples, direct ELISA). It is filed as physicochemical. As to conditions: 0.5 μg/mL, 37° C., distilled water, phosphate buffer saline, tris-buffer saline. The protocol:
For the first release assay, a fibrin matrix of 50 μl with 0.1 mg PTH or TGPTH per ml fibrin matrix was incubated at 37° C. in 10 ml buffer. Therefore, the concentration of PTH or TGPTH in the buffer in case of a total release would be 0.5 μg PTH or TGPTH/mL fibrin matrix. In order to compare the stability of PTH or TGPTH during the assay, samples of PTH or TGPTH were diluted directly in the buffer to a concentration of 0.5 μg PTH or TGPTH/mL fibrin matrix. Different buffers were tested: distilled water, phosphate buffer saline, tris-buffer saline.
Aliquots were taken at days 0, 1, 2, 4 and 6 and analysed by direct ELISA. […] Therefore, no conclusion could be made on the release data. The PTH stability was certainly affected by its low concentration and the buffers that were not optimal.
The release experiment was repeated by using a stabilizing buffer containing 50 mM mannitol in a 10 mM sodium acetate buffer. In addition, the buffer was exchanged every 2 days in order to prevent any degradation of peptide. […] The concentration of PTH or TGPTH in the buffer in case of a total release would be 100 μg/mL fibrin matrix (200 times more than before). […] Samples were collected every 2 to 4 days (with a change of buffer) during 2 weeks and analysed by direct ELISA. […]
For orientation: ELISA stands for enzyme-linked immunosorbent assay.

The target in data set [2] is T1, parathyroid hormone receptor (Homo sapiens, UniProt Q03431).
T1 construct: endogenous in cells; transfected only with a luciferase reporter plasmid driven by the PTH receptor promoter
T1 sequence (Q03431 27-593): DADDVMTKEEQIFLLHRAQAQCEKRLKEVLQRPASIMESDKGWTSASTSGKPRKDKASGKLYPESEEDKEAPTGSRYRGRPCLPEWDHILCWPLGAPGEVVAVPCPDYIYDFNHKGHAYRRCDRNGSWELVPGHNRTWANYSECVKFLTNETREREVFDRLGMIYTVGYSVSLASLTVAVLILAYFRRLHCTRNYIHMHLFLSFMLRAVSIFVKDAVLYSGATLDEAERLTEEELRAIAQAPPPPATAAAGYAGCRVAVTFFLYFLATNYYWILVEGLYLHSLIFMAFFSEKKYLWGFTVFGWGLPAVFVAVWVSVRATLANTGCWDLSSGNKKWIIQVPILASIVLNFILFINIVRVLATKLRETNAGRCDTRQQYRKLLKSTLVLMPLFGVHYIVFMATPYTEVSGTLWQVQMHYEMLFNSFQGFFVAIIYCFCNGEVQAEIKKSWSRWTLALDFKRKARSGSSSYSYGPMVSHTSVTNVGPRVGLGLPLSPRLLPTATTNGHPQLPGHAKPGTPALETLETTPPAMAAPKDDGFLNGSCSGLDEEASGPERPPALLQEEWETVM
Nature of the data set: Reporter gene assay for bioactivity of PTH fusion peptides. It is filed as cell-based. The note with it: luciferase reporter linked to PTH receptor promoter; equal amounts; compared to international 84 amino acid standard. As for the experimental part: Cells transfected with a reporter gene linked to a promoter for a PTH receptor were treated with equal amounts of either PTH1-34, TG-pl-PTH1-34 (described hereinafter) or the international 84 amino acid standard. The inhibition of expression of the luciferase reporter gene was measured and compared to transfected cells that were not exposed to PTH in solution (control).
To study the bioactivity of the PTH fusion peptides, a reporter gene assay was established. In this assay, a plasmid that contains luciferase reporter gene which is linked to the promoter for the parathyroid hormone receptor is transfected into cells. Then, if the cell is exposed to PTH and the PTH subsequently binds to its receptor on the cell, a signal cascade, directed through elevated cAMP levels, is initiated. Through a natural feedback regulation, this then leads to a reduction of PTH receptor levels. As the reduction is directed through the promoter, it also then leads to a decrease in production of the linked reporter gene. Using this assay, the activity of both native PTH1-34 as well as TG-pl-PTH1-34 were studied and compared to an international standard.
For orientation: A reporter such as luciferase makes a cellular process visible.

`CC[C@H](C)[C@H](NC(=O)[C@H](CCC(=O)O)NC(=O)[C@H](CO)NC(=O)[C@@H](NC(=O)[C@@H](N)CO)C(C)C)C(=O)N[C@@H](CCC(N)=O)C(=O)N[C@@H](CC(C)C)C(=O)N[C@@H](CCSC)C(=O)N[C@@H](Cc1cnc[nH]1)C(=O)N[C@@H](CC(N)=O)C(=O)N[C@@H](CC(C)C)C(=O)NCC(=O)N[C@@H](CCCCN)C(=O)N[C@@H](Cc1cnc[nH]1)C(=O)N[C@@H](CC(C)C)C(=O)N[C@@H](CC(N)=O)C(=O)N[C@@H](CO)C(=O)N[C@@H](CCSC)C(=O)N[C@@H](CCC(=O)O)C(=O)N[C@@H](CCCN=C(N)N)C(=O)N[C@H](C(=O)N[C@@H](CCC(=O)O)C(=O)N[C@@H](Cc1c[nH]c2ccccc12)C(=O)N[C@@H](CC(C)C)C(=O)N[C@@H](CCCN=C(N)N)C(=O)N[C@@H](CCCCN)C(=O)N[C@@H](CCCCN)C(=O)N[C@@H](CC(C)C)C(=O)N[C@@H](CCC(N)=O)C(=O)N[C@@H](CC(=O)O)C(=O)N[C@H](C(=O)N[C@@H](Cc1cnc[nH]1)C(=O)N[C@@H](CC(N)=O)C(=O)N[C@@H](Cc1ccccc1)C(=O)O)C(C)C)C(C)C` [PTH1-34] returned a stability in buffer in data set [1] of no more than 2 days.

As for “NQEQVSPLYKNRSVSEIQLMHNLGKHLNSMERVEWLRKKLQDVHNF [TG-pl-PTH1-34]”, the “level of activity (reduction in reporter gene expression)” value in data set [2] is listed as “the same as for the international standard”.

The values above are taken from patent US8318674B2, “Local treatment of bone defects” (Kuros Biosurgery AG, priority 2005, dated 2012).
